Assay results: patent US20210022342A1, “THE USE OF SAFENERS TO IMPROVE RESISTANCE OF RICE CROP TO HERBICIDES” (Adama Agan Ltd., priority 2018, published 2021)

Experiments:
Type in all cases: in vivo
[1] = test system: ALS resistant rice variety (A205V and G654E substitution); test: Imazamox dose response with or without isoxadifen, regrowth, ALS resistant rice
Procedure: (§1) Seed of an ALS resistant rice variety (rice plant with the A205V and G654E substitution (ATCC accession numbers PTA-123859, PTA-123860 and/or PTA-123861) is planted in a commercial greenhouse soil mix in 10×10×10 cm plastic pots. 250 mL of soil is put into each pot, then the seed is placed on top of the soil and the seed is covered with 100-150 mL of soil. Approximately 8-10 seeds are planted per pot. The pots are then watered with 100 mL of a mixture of Miracle Grow and Fertiplus (iron supplement). The pots are placed in the greenhouse (38° C./20° C. day/night, 14 h photoperiod with supplemental light). The average light intensity in the greenhouse is 150 μM/m^2/sec.
(§2) Plants are grown until 10 days after planting and then the pots are transferred to trays and the plants are grown under water. Plants are treated when they reach the 3-5 leaf stage.
(§3) Generally, plants are treated through a moving nozzle spray system in a spray volume of 200 l/ha or 187 l/ha. Isoxadifen is tank mixed with the herbicide in the spray bottle at a rate of 100 g/ha.
(§4) Four days after treatment, the tops of the plants are cut off to approximately 3 cm from the top of the soil. The plants are allowed to regrow for 7 days at which time the amount of regrowth is measured by cutting any growth above 3 cm above the top of soil and weighing the tissue that regrew.
Efficacy tests were conducted to determine the effect of imazamox on rice plant with the A205V and G654E substitutions (ATCC accession numbers PTA-123859, PTA-123860 and/or PTA-123861) in the presence of safener (isoxadifen).
(§5) The imazamox (in rates of 0, 2.2, 6.6, 19.7, 54.9 and 177.3 g/ha) was applied on wild type rice and herbicide resistance rice in the presence or absence of safener (isoxadifen at 100 g/ha).
(§6) The improvement in regrowth was calculated by subtracting the regrowth from a) wild type rice and wild type rice with isoxadifen; b) herbicide resistant rice; and c) herbicide resistant rice and isoxadifen.
(§7) Calculations were done for each application rate of imazamox. The efficacy of safener alone and mutation alone on decreasing herbicide effect/increasing herbicide resistance were calculated. The relative fresh weight re-growth is the percentage of activity (for Colby).
(§8) The re-growth data was implemented in curve and the synergistic effect was calculated. The observed efficacy is higher than calculated efficacy.

[2] = test system: wild type rice (Non-Traited Rice); test: Imazamox dose response with or without isoxadifen, regrowth, wild type rice; conditions: for Calculated effect of Safener (relative fresh weight re-growth): difference with and without isoxadifen on Non-Traited Rice
Procedure: as §1, §2, §3, §4, §5, §6, §7, §8

[3] = test system: ACCase inhibitor resistant rice seeds (ML0831265-01493 (ATCC deposit PTA-12933, mutation G2096S)); test: Safener seed treatment with propaquizafop or quizalofop: regrowth of resistant rice
Procedure: (§9) Seeds of a proprietary ACCase resistant rice variety, i.e. RTA1, was used. RTA1, ML0831265-01493 (ATCC deposit PTA-12933, mutation G2096S) variety rice seeds were supplied by RiceTec. RTA1 rice cultivar contains a single mutation in the ACCase gene that confer ACCase resistance. The mutation makes the enzyme insensitive to quizalofop.
(§10) Mutant rice seeds were planted in commercial greenhouse soil mix in 10×10×10 cm plastic pots. 250 mL of soil was put into each pot, then the seeds were placed on top of the soil and the seeds were covered with 100-150 mL of soil. Approximately 8-10 seeds were planted per pot. The pots were then watered with 100 mL of a mixture of Miracle Grow and Fertiplus (iron supplement). The pots were placed in the greenhouse (38° C./20° C. day/night, 14 h photoperiod with supplemental light). The average light intensity in the greenhouse was 150 μM/m^2/sec.
Plants were grown until 10 days after planting and then the pots were transferred to trays and the plants were grown under water. :Plants were treated when they reached the 3-5 leaf stage. […]
(§11) Four days after treatment, the tops of the plants were cut off so that approximately 2.5 cm of plant from the top of the soil remain. The plants were allowed to regrow for 3 days at which time the amount of regrowth was weighed by measuring the amount of fresh weight of tissue that regrew. Comparing the weight of regrowth of shoots after cutting indicates the level of phytotoxicity the herbicide had on the mutant rice plant and the increased level of resistance of the mutant rice to the herbicide when the herbicide was applied in combination with the safener.
The safeners were also applied in various w/w ratios of the ACCase inhibiting herbicides to the rice seeds.

mutant rice = test: Regrowth of mutant rice under low and high light intensity; conditions: for Regrowth (mg FW): with safener, herbicide 0 g/ha
Excerpt: as §11

[4] = test system: mutant rice (ML0831265-01493, ATCC deposit PTA-12933, mutation G2096S); test: Tank mixes of safeners with propaquizafop or quizalofop: regrowth of mutant rice
Procedure: as §9, §10
Plants were grown until 10 days after planting and then the pots were transferred to trays and the plants were grown under water. :Plants were treated when they reached the 3-5 leaf stage.
Safeners were tank mixed with the herbicide in the spray bottle.
as §11
The safeners were applied in various w/w ratios with the ACCase inhibiting herbicides to the rice plant.

[5] = test system: HPPD resistant rice variety; test: HPPD herbicides with isoxadifen, regrowth of HPPD resistant mutant rice
Procedure: The rice cultivar contains mutation(s) in the HPPD gene which makes the enzyme insensitive to mesotrione and/or tembotrione and/or isoxaflutole.
Seed of HPPD resistant rice variety is planted in a commercial greenhouse soil mix in 10×10×10 cm plastic pots. 250 mL of soil is put into each pot, then the seed is placed on top of the soil and the seed is covered with 100-150 mL of soil. Approximately 8-10 seeds are planted per pot. The pots are then watered with 100 mL of a mixture of Miracle Grow and Fertiplus (iron supplement). The pots are placed in the greenhouse (38° C./20° C. day/night, 14 h photoperiod with supplemental light). The average light intensity in the greenhouse was 150 μM/m^2/sec.
Plants are grown until 10 days after planting and then the pots are transferred to trays and plants are grown under water. Plants are treated when they reach the 3-5 leaf stage.
Generally, plants are treated with 50-250 g/ha of mesotrione or tembotrione or isoxaflutole through a moving nozzle spray system in a spray volume of 200 l/ha or 187 l/ha. Isoxadifen is tank mixed with the herbicide in the spray bottle. The weight ratio of the safener to the herbicide in the tank mix is from 1:1 to 1:5.
Four days after reatment, the tops of the plants are cut off to approximately 3 cm from the top of the soil. The plants are allowed to regrow for 7 days at which time the amount of regrowth is measured by cutting any growth above 3 cm above the top of soil and weighing the tissue that regrew.
Efficacy test is conducted to determine the effect of mesotrione on mutant rice in the presence of isoxadifen.
The weight the regrown shoot on mutant rice applied with mesotrione is compared with the weight of regrown shoot on mutant rice applied with mesotrione and isoxadifen at various rates.

[6] = isoxaflutole with isoxadifen vs same mutant rice not treated with isoxadifen
[7] = mesotrione with isoxadifen vs same mutant rice not treated with isoxadifen
[8] = tembotrione with isoxadifen vs same mutant rice not treated with isoxadifen

COCc1cnc(C2=NC(C)(C(C)C)C(=O)N2)c(C(=O)O)c1 (racemic) [Imazamox, 2-[(RS)-4-isopropyl-4-methyl-5-oxo-2-imidazolin-2-yl]-5-methoxymethylnicotinic acid]
Relative fresh weight re-growth after treatment ([1]; Mutant & Safener (isoxadifen 100 g/ha), imazamox 2.2 g/ha): 1.17
Relative fresh weight re-growth after treatment ([1]; Mutant & Safener (isoxadifen 100 g/ha), imazamox 6.6 g/ha): 1.33
Relative fresh weight re-growth after treatment ([1]; Mutant & Safener (isoxadifen 100 g/ha), imazamox 19.7 g/ha): 1.14
Relative fresh weight re-growth after treatment ([1]; Mutant & Safener (isoxadifen 100 g/ha), imazamox 54.9 g/ha): 0.53
Relative fresh weight re-growth after treatment ([1]; Mutant & Safener (isoxadifen 100 g/ha), imazamox 177.3 g/ha): 0.13
Relative fresh weight re-growth after treatment ([1]; Mutant, no safener, imazamox 2.2 g/ha): 0.93
Relative fresh weight re-growth after treatment ([1]; Mutant, no safener, imazamox 6.6 g/ha): 0.99
Relative fresh weight re-growth after treatment ([1]; Mutant, no safener, imazamox 19.7 g/ha): 0.68
Relative fresh weight re-growth after treatment ([1]; Mutant, no safener, imazamox 54.9 g/ha): 0.42
Relative fresh weight re-growth after treatment ([1]; Mutant, no safener, imazamox 177.3 g/ha): 0.15
Calculated efficacy base on Colby (%) ([1]; expected for mutant & safener, imazamox 42 g/ha): 50%
additive effect of safener and mutant on ED50 ([1]; expected, 4+85): 89 folds
observed increase in ED50 ([1]; herbicide resistant rice with safener vs the wildtype): 120 folds
Observed efficacy (%) ([1]; mutant & safener, imazamox 42 g/ha): 77%
Efficacy at ED50 of mutant- 42 g/ha (%) ([1]; mutant alone, imazamox 42 g/ha): 50%
increase in tolerance to herbicide (ED50) by the mutation ([1]; mutant rice vs wildtype rice, no safener): 85 fold
Relative fresh weight re-growth after treatment ([2]; Non-Traited Rice, imazamox 2.2 g/ha): 0.36
Relative fresh weight re-growth after treatment ([2]; Non-Traited Rice, imazamox 6.6 g/ha): 0.16
Relative fresh weight re-growth after treatment ([2]; Non-Traited Rice, imazamox 19.7 g/ha): 0.14
Relative fresh weight re-growth after treatment ([2]; Non-Traited Rice, imazamox 54.9 g/ha): 0.11
Relative fresh weight re-growth after treatment ([2]; Non-Traited Rice, imazamox 177.3 g/ha): 0.09
Relative fresh weight re-growth after treatment ([2]; Safener & Non-Traited Rice (isoxadifen 100 g/ha), imazamox 2.2 g/ha): 0.47
Relative fresh weight re-growth after treatment ([2]; Safener & Non-Traited Rice (isoxadifen 100 g/ha), imazamox 6.6 g/ha): 0.17
Relative fresh weight re-growth after treatment ([2]; Safener & Non-Traited Rice (isoxadifen 100 g/ha), imazamox 19.7 g/ha): 0.06
Relative fresh weight re-growth after treatment ([2]; Safener & Non-Traited Rice (isoxadifen 100 g/ha), imazamox 54.9 g/ha): 0.05
Relative fresh weight re-growth after treatment ([2]; Safener & Non-Traited Rice (isoxadifen 100 g/ha), imazamox 177.3 g/ha): 0.05
Efficacy at ED50 of mutant- 42 g/ha (%) ([2]; calculated effect of safener alone, imazamox 42 g/ha): 0%
Calculated effect of Safener (relative fresh weight re-growth) ([2]; imazamox 2.2 g/ha): 0.12
Calculated effect of Safener (relative fresh weight re-growth) ([2]; imazamox 6.6 g/ha): 0.02
Calculated effect of Safener (relative fresh weight re-growth) ([2]; imazamox 19.7 g/ha): −0.08
Calculated effect of Safener (relative fresh weight re-growth) ([2]; imazamox 54.9 g/ha): −0.06
Calculated effect of Safener (relative fresh weight re-growth) ([2]; imazamox 177.3 g/ha): −0.04
increase of resistance (ED50) by the safener ([2]; wildtype rice with safener vs without): 4 folds

O=C(O)C1=NOC(c2ccccc2)(c2ccccc2)C1 [Isoxadifen, isoxadifen]
Regrowth (fresh weight mg) ([3]; propaquizafop, safener seed treatment 0.5 g/kg of seed): 133 mg
Regrowth (fresh weight mg) ([3]; propaquizafop, safener seed treatment 1 g/kg of seed): 170 mg
Regrowth (fresh weight mg) ([3]; propaquizafop, safener seed treatment 2 g/kg of seed): 298 mg
Regrowth (fresh weight mg) ([3]; quizalofop, safener seed treatment 0.5 g/kg of seed): 165 mg
Regrowth (fresh weight mg) ([3]; quizalofop, safener seed treatment 1 g/kg of seed): 103 mg
Regrowth (fresh weight mg) ([3]; quizalofop, safener seed treatment 2 g/kg of seed): 80 mg
regrowth of the mutant rice (mutant rice; high light intensity, quizalofop with isoxadifen, any of the rates tested): regrowth was not significant affected
Regrowth (mg FW) (mutant rice; high light intensity): 540 mg FW
reduction in growth of the mutant rice (mutant rice; low light intensity, 40 g/ha quizalofop with 100 g/ha isoxadifen): less than 20%
Regrowth (mg FW) (mutant rice; low light intensity): 183 mg FW
Regrowth (fresh weight mg) ([4]; tank mix with propaquizafop 50 g/ha, safener 12.5 g/ha): 38 mg
Regrowth (fresh weight mg) ([4]; tank mix with propaquizafop 50 g/ha, safener 25 g/ha): 258 mg
Regrowth (fresh weight mg) ([4]; tank mix with propaquizafop 50 g/ha, safener 50 g/ha): 310 mg
Regrowth (fresh weight mg) ([4]; tank mix with propaquizafop 50 g/ha, safener 100 g/ha): 488 mg
Regrowth (fresh weight mg) ([4]; tank mix with quizalofop 40 g/ha, safener 12.5 g/ha): 87 mg
Regrowth (fresh weight mg) ([4]; tank mix with quizalofop 40 g/ha, safener 25 g/ha): 285 mg
Regrowth (fresh weight mg) ([4]; tank mix with quizalofop 40 g/ha, safener 50 g/ha): 335 mg
Regrowth (fresh weight mg) ([4]; tank mix with quizalofop 40 g/ha, safener 100 g/ha): 462 mg
level of resistance of the mutant rice to isoxaflutole [5, 6]: significantly increases the level of resistance
phytotoxicity of isoxaflutole on the mutant rice [5, 6]: significantly reduces the phytotoxicity
level of resistance of the mutant rice to mesotrione [5, 7]: significantly increases the level of resistance
phytotoxicity of mesotrione on the mutant rice [5, 7]: significantly reduces the phytotoxicity
level of resistance of the mutant rice to tembotrione [5, 8]: significantly increases the level of resistance
phytotoxicity of tembotrione on the mutant rice [5, 8]: significantly reduces the phytotoxicity
